The structures appear in SMILES notation.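 Assay format: 96-well plates, 48-hour exposure. TGI: concentration producing complete growth inhibition.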 Where only a bound is given, the exact number is not on record here.

Data on nine compounds can be found in PubChem BioAssay (NCI).

Test systems include DMS 114 small cell lung; SNB-78 CNS; HOP-18 NSCLC; XF 498 CNS.
Assay in all cases: NCI tumour cell line growth inhibition, 48 h

As to `Cc1cc(C)c(N)c(C)c1N`, the TGI with DMS 114 small cell lung, in the assay with SNB-78 CNS and with HOP-18 NSCLC was over 100 µM throughout.

With `CCOC(=O)CC(=Nc1cc(C)on1)N(CC)CC`, the TGI in the assay with DMS 114 small cell lung, in the assay on XF 498 CNS and with SNB-78 CNS was over 100 µM throughout.

In the case of `[N-]=[N+]=NC(c1cn(C2CC(O)C(CO)O2)c(=O)[nH]c1=O)C(I)I` (centres undefined), the TGI with DMS 114 small cell lung, with SNB-78 CNS and in the assay on HOP-18 NSCLC was over 100 µM each time.

As for `Nc1nc(SCc2ccccc2[N+](=O)[O-])c2[nH]cnc2n1`, the TGI in the assay with SNB-78 CNS was over 100 µM.

On to `C=CC[C@@]1(C#N)C[C@H](C[C@]2(C#N)C[C@H](CCl)OC(C)(C)O2)OC(C)(C)O1`, for which the TGI in the assay on DMS 114 small cell lung, in the assay with XF 498 CNS and in the assay with HOP-18 NSCLC was over 100 µM throughout.

`Cc1ccc(C(=O)NC(C)C)cc1N=NN(C)C` returned a TGI in the assay with SNB-78 CNS of over 100 µM.

For the compound `O=C(Cc1ccccc1)NN1C(=O)C(Cl)C1c1ccccc1` (centres undefined), the TGI in the assay on DMS 114 small cell lung was over 100 µM; in the assay with XF 498 CNS it was 45.2 µM; with SNB-78 CNS it was over 100 µM; in the assay with HOP-18 NSCLC, over 100 µM.

Consider `CC[S+](C)c1ccc(-c2c3nc(c(-c4ccc([S+](C)CC)cc4)c4ccc([nH]4)c(-c4ccc([S+](C)CC)cc4)c4nc(c(-c5ccc([S+](C)CC)cc5)c5ccc2[nH]5)C=C4)C=C3)cc1` (centres undefined), for which the TGI with XF 498 CNS is 8.31 µM; in the assay with SNB-78 CNS, over 100 µM.

As to `CCc1c(-c2coc(CC/C(C)=C/c3ccccc3)n2)oc(OC)c(C)c1=O`, the TGI is 29.2 µM in the assay with DMS 114 small cell lung, 75.4 µM in the assay on XF 498 CNS, over 100 µM with SNB-78 CNS and over 100 µM in the assay with HOP-18 NSCLC.
